The results in this text go back to patent US20100056508A1, “AMINE DERIVATIVES AND THEIR USE IN BETA-2-ADRENORECEPTOR MEDIATED DISEASES” (ASTRAZENECA AB, priority 2006, published 2010).

Counter-ions that a name gives are not always drawn. Bounds are passed on as bounds.

The target in assay [1] is T1, recombinant human α1D receptor (Homo sapiens, UniProt P25100).
T1 construct: expressed in transfected cells; host or cells: human embryonic kidney 293 cells (HEK93 [sic]), membranes
T1 sequence (P25100 1-572): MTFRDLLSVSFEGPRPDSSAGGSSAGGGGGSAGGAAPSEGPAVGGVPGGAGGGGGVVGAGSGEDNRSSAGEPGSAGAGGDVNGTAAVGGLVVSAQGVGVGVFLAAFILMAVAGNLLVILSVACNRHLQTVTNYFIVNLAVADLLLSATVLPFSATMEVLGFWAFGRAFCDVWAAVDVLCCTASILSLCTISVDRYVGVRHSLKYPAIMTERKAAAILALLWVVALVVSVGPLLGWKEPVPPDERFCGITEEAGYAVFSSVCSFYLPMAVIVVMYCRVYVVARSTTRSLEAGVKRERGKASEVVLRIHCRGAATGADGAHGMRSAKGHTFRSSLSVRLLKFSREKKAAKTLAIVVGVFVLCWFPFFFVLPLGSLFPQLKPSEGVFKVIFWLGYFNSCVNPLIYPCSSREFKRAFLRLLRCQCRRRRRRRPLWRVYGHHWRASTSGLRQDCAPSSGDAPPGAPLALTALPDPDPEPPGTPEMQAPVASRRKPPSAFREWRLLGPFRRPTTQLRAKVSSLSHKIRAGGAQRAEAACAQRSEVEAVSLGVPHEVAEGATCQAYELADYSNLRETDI
The assay is described as follows: Adrenergic α1D selectivity assay, [3H]-prazosin binding to membranes. Conditions: inhibition of [3H]-prazosin binding, HEK cell membranes, read-out: α1 bind pIC50 (converted). The protocol:
Membranes were prepared from human embryonic kidney 293 ([…]) cells expressing recombinant human α1D receptor. These were diluted in Assay Buffer (50 mM HEPES, 1 mM EDTA, pH 7.4) to provide a final concentration of membranes that gave a clear window between maximum and minimum specific binding.
(§1) Assays were performed in U-bottomed 96-well polypropylene plates. 10 μL [^3H]-prazosin (0.3 nM final concentration) and 10 mL of test compound (10× final concentration) were added to each test well. For each assay plate 8 replicates were obtained for [^3H]-prazosin binding in the presence of 10 μL vehicle (10% (v/v) DMSO in Assay Buffer; defining maximum binding) or 10 μL BMY7378 (10 μM final concentration; defining non-specific binding (NSB)). Membranes were then added to achieve a final volume of 100 μL. The plates were incubated for 2 hours at room temperature and then filtered onto PEI coated GF/B filter plates, pre-soaked for 1 hour in Assay Buffer, using a 96-well plate Tomtec cell harvester. Five washes with 250 μL wash buffer (50 mM HEPES, 1 mM EDTA, pH 7.4) were performed at 4° C. to remove unbound radioactivity. The plates were dried then sealed from underneath using Packard plate sealers and MicroScint-O (50 μL) was added to each well. The plates were sealed (TopSeal A) and filter-bound radioactivity was measured with a scintillation counter (TopCount, Packard BioScience) using a 3-minute counting protocol.
Total specific binding (B0) was determined by subtracting the mean NSB from the mean maximum binding. NSB values were also subtracted from values from all other wells. […] Data was fitted to a four parameter logistic equation to determine the compound potency, which was expressed as pIC50 (negative log molar concentration inducing 50% inhibition of [^3H]-prazosin binding).

In assay [2] the target is T2, recombinant human adrenergic beta 1 receptors (Homo sapiens, UniProt P08588).
T2 construct: purchased Euroscreen
T2 sequence (P08588 whole entry): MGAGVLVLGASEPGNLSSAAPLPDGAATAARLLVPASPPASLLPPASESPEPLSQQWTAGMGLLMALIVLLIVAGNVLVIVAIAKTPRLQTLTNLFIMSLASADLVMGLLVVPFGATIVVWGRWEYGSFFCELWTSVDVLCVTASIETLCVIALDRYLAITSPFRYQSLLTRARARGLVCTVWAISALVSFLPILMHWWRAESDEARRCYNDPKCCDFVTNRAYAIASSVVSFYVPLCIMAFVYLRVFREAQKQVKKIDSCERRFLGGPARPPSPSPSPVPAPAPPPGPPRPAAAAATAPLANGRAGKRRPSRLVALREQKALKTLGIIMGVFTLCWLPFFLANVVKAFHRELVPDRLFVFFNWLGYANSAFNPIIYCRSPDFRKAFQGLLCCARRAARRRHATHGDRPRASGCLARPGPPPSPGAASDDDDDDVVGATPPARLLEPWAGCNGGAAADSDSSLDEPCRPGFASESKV
The assay is described as follows: Adrenergic β1 selectivity assay, [125I]-Iodocyanopindolol binding to membranes. The settings on record: inhibition of [125I]-Iodocyanopindolol binding, read-out: β1 bind pIC50 (converted). The protocol:
Membranes containing recombinant human adrenergic beta 1 receptors were obtained from Euroscreen. These were diluted in Assay Buffer (50 mM HEPES, 1 mM EDTA, 120 mM NaCl, 0.1% gelatin, pH 7.4) to provide a final concentration of membranes that gave a clear window between maximum and minimum specific binding.
as §1, with “[^125I]-Iodocyanopindolol (0.036” for “[^3H]-prazosin (0.3”, “μL” for “mL”, “[^125I]-Iodocyanopindolol” for “[^3H]-prazosin”, “Propranolol” for “BMY7378”, “EDTA, 120 mM NaCl,” for “EDTA,”
Total specific binding (B0) was determined by subtracting the mean NSB from the mean maximum binding. NSB values were also subtracted from values from all other wells. […] Data was fitted to a four parameter logistic equation to determine the compound potency, which was expressed as pIC50 (negative log molar concentration inducing 50% inhibition of [^125I]-Iodocyanopindolol binding).

For a further assay, the target named is T3, Adrenergic β2 (Homo sapiens, UniProt P07550).
T3 construct: Adherent H292 cells were removed from tissue culture flasks; endogenous in cells; host or cells: H292 cells
T3 sequence (P07550 whole entry): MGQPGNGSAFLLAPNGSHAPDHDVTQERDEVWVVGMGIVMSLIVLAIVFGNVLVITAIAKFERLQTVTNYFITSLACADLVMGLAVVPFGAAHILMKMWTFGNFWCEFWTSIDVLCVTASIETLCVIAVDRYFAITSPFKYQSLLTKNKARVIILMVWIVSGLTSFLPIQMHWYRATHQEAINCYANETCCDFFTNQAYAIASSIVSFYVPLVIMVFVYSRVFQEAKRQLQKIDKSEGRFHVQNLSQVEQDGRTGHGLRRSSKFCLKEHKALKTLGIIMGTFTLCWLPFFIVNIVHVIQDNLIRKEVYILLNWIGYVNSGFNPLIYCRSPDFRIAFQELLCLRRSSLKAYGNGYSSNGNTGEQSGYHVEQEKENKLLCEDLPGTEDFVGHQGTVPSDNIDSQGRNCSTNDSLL
Put plainly: Adrenergic β2 mediated cAMP production in H292 cells (AlphaScreen cAMP detection). Format: cell-based. The arrangement: key to β2 Int Act: fraction of formoterol maximum activity (formoterol = 1). Conditions: for β2 Int Act: Intrinsic Activity as a fraction relative to the maximum activity determined for formoterol; for EC50: cAMP production, 60 minutes at room temperature, 300 μM rolipram, read-out: β2 pEC50 (converted). The protocol:
Adrenergic β2 Mediated cAMP Production
H292 cells were grown in 225 cm2 flasks incubator at 37° C., 5% CO2 in RPMI medium containing, 10% (v/v) FBS (foetal bovine serum) and 2 mM L-glutamine.
Adherent H292 cells were removed from tissue culture flasks by treatment with Accutase™ cell detachment solution for 15 minutes. Flasks were incubated for 15 minutes in a humidified incubator at 37° C., 5% CO2. Detached cells were re-suspended in RPMI media (containing 10% (v/v) FBS and 2 mM L-glutamine) at 1×10^6 cells per mL. 10000 cells in 100 μL were added to each well of a tissue-culture-treated 96-well plate and the cells incubated overnight in a humidified incubator at 37° C., 5% CO2. The culture media was removed and cells were washed twice with 100 μL assay buffer and replaced with 50 μL assay buffer (HBSS solution containing 10 mM HEPES pH7.4 and 5 mM glucose). Cells were rested at room temperature for 20 minutes after which time 25 μL of rolipram (1.2 mM made up in assay buffer containing 2.4% (v/v) dimethylsulphoxide) was added. Cells were incubated with rolipram for 10 minutes after which time test compounds were added and the cells were incubated for 60 minutes at room temperature. The final rolipram concentration in the assay was 300 μM and final vehicle concentration was 1.6% (v/v) dimethylsulphoxide. The reaction was stopped by removing supernatants, washing once with 100 μL assay buffer and replacing with 50 μL lysis buffer. The cell monolayer was frozen at −80° C. for 30 minutes (or overnight).
AlphaScreen™ cAMP Detection
The concentration of cAMP (cyclic adenosine monophosphate) in the cell lysate was determined using AlphaScreen™ methodology. The frozen cell plate was thawed for 20 minutes on a plate shaker then 10 μL of the cell lysate was transferred to a 96-well white plate. 40 μL of mixed AlphaScreen™ detection beads pre-incubated with biotinylated cAMP, was added to each well and the plate incubated at room temperature for 10 hours in the dark. The AlphaScreen™ signal was measured using an EnVision spectrophotometer (Perkin-Elmer Inc.) with the recommended manufacturer's settings. cAMP concentrations were determined by reference to a calibration curve determined in the same experiment using standard cAMP concentrations. Concentration response curves for agonists were constructed and data was fitted to a four parameter logistic equation to determine both the pEC50 and Intrinsic Activity. Intrinsic Activity was expressed as a fraction relative to the maximum activity determined for formoterol in each experiment.
A general note: Changes in cAMP serve as a functional read-out for many G protein-coupled receptors.

Assay [3] addresses T4, recombinant human Dopamine Subtype D2s receptors (Homo sapiens, UniProt P14416).
T4 construct: purchased Perkin Elmer
The assay is described as follows: Dopamine D2 selectivity assay, [3H]-spiperone binding to membranes. The settings on record: inhibition of [3H]-spiperone binding, read-out: D2 bind pIC50 (converted). The method, then:
Membranes containing recombinant human Dopamine Subtype D2s receptors were obtained from Perkin Elmer. These were diluted in Assay Buffer (50 mM HEPES, 1 mM EDTA, 120 mM NaCl, 0.1% gelatin, pH 7.4) to provide a final concentration of membranes that gave a clear window between maximum and minimum specific binding.
Assays were performed in U-bottomed 96-well polypropylene plates. 30 μL [^3H]-spiperone (0.16 nM final concentration) and 30 μL of test compound (10× final concentration) were added to each test well. For each assay plate 8 replicates were obtained for [^3H]-spiperone binding in the presence of 30 μL vehicle (10% (v/v) DMSO in Assay Buffer; defining maximum binding) or 30 μL Haloperidol (10 μM final concentration; defining non-specific binding (NSB)). Membranes were then added to achieve a final volume of 300 μL. The plates were incubated for 2 hours at room temperature and then filtered onto PEI coated GF/B filter plates, pre-soaked for 1 hour in Assay Buffer, using a 96-well plate Tomtec cell harvester. Five washes with 250 μL wash buffer (50 mM HEPES, 1 mM EDTA, 120 mM NaCl, pH 7.4) were performed at 4° C. to remove unbound radioactivity. The plates were dried then sealed from underneath using Packard plate sealers and MicroScint-0 (50 μL) was added to each well. The plates were sealed (TopSeal A) and filter-bound radioactivity was measured with a scintillation counter (TopCount, Packard BioScience) using a 3-minute counting protocol.
Total specific binding (B0) was determined by subtracting the mean NSB from the mean maximum binding. NSB values were also subtracted from values from all other wells. […] Data was fitted to a four parameter logistic equation to determine the compound potency, which was expressed as pIC50 (negative log molar concentration inducing 50% inhibition of [^3H]-spiperone binding).

T4 sequence (P14416 1-414 isoform P14416-2): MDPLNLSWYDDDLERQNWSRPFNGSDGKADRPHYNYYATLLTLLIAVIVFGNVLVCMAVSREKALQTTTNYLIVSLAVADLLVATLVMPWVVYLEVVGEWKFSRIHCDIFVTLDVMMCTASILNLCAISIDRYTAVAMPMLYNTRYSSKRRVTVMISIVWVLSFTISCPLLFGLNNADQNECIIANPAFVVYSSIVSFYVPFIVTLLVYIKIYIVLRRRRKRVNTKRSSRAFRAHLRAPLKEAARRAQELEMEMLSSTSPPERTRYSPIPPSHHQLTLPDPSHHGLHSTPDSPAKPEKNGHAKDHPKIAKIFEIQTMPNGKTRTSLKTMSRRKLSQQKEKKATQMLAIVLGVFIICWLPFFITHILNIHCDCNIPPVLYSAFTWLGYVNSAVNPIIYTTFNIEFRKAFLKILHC

Turning to `O=C1COc2c(CCNCCN(C(=O)CCNCCc3cc(Cl)ccc3F)C3CCCCC3)ccc(O)c2N1` [Example 34, 3-(5-Chloro-2-fluorophenethylamino)-N-cyclohexyl-N-(2-(2-(5-hydroxy-3-oxo-3,4-dihydro-2H-benzo[b][1,4]oxazin-8-yl)ethylamino)ethyl)propanamide bis(trifluoroacetate)], the IC50 in assay [1] is 63.1 nM; in assay [2], 1000 nM. Besides, the “β2 Int Act” value at Adrenergic β2 came out at 0.9. Besides, the EC50 on Adrenergic β2 was 1.58 nM.
For `O=C(CCNCCc1ccc(F)c(F)c1)N(CCNCCc1ccc(O)c2[nH]c(=O)ccc12)C1CCCCC1` [Example 16, N-Cyclohexyl-3-(3,4-difluorophenethylamino)-N-(2-(2-(8-hydroxy-2-oxo-1,2-dihydroquinolin-5-yl)ethylamino)ethyl)propanamide bis(trifluoroacetate)] the same measures were 316 nM, above 10000 nM, 0.85 and 20 nM.
For `O=C(CCNCCc1cc(F)cc(F)c1)N(CCNCCc1ccc(O)c2[nH]c(=O)ccc12)C1CCCCCC1` [Example 10, N-Cycloheptyl-3-(3,5-difluorophenethylamino)-N-(2-(2-(8-hydroxy-2-oxo-1,2-dihydroquinolin-5-yl)ethylamino)ethyl)propanamide bis(trifluoroacetate)], in that order: 316 nM, above 7940 nM, 0.85 and 20 nM.
For `Cl.O=C(CCOCCc1ccccc1F)N(CCNCCc1ccc(O)c2[nH]c(=O)ccc12)C1CCCCC1` [Example 73, N-Cyclohexyl-3-(2-fluorophenethoxy)-N-(2-(2-(8-hydroxy-2-oxo-1,2-dihydroquinolin-5-yl)ethylamino)ethyl)propanamide hydrochloride], in assay [1], the IC50 was 631 nM. Moreover, the IC50 in assay [3] was 5010 nM. Moreover, at Adrenergic β2, the “β2 Int Act” value amounted to 0.94 and the EC50 was 3.98 nM.
For `Cl.O=C(CCOCCc1cccc(F)c1)N(CCNCCc1ccc(O)c2[nH]c(=O)ccc12)C1CCCCC1` [Example 72, N-Cyclohexyl-3-(3-fluorophenethoxy)-N-(2-(2-(8-hydroxy-2-oxo-1,2-dihydroquinolin-5-yl)ethylamino)ethyl)propanamide hydrochloride] the same measures were 501 nM, 3980 nM, 0.92 and 5.01 nM.
For `Cc1cccc(CCNCCC(=O)N(CCNCCc2ccc(O)c3[nH]c(=O)ccc23)C2CCCCCC2)c1` [Example 8, N-Cycloheptyl-N-(2-(2-(8-hydroxy-2-oxo-1,2-dihydroquinolin-5-yl)ethylamino)ethyl)-3-(3-methylphenethylamino)propanamide bis(trifluoroacetate)], in that order: 100 nM, 398 nM, 0.79 and 6.31 nM.
For `O=C1Cc2c(CCNCCN(C(=O)CCNCCc3cccc(F)c3)C3CCCCC3)ccc(O)c2N1` [Example 20, N-Cyclohexyl-3-(3-fluorophenethylamino)-N-(2-(2-(7-hydroxy-2-oxoindolin-4-yl)ethylamino)ethyl)propanamide dihydrobromide] the same measures were 158 nM, 398 nM, 0.78 and 7.94 nM.
